Measured values taken from patent US20220273638A1 (Belina Pharma AB, priority 2019, published 2022).

Tests used:
[1] = for HR, melanoma specific survival adjusted for Breslow thickness / HR, melanoma specific survival adjusted for Breslow thickness and lymph gland metastases: hazard ratio versus non-users; for survivability, comparative results adjusted for Breslow thickness: tables 1 and 2, adjusted for Breslow thickness; for effect on melanoma survival: regardless of age, gender and tumor status
Description: (§1) Both peri- and post-diagnostic antihistamine use was analyzed, using Cox regression models, as well as different subgroups of patients with regard to age, gender (as a proxy for sex) and tumor status.
(§2) Our study population included all of the 35,905 individuals with newly diagnosed melanoma from 2005 through 2014, identified using the Swedish National Quality Register for Malignant Skin Melanoma (hereafter referred to as the Melanoma Register), a database comprising all cases of malignant melanoma of the skin in Sweden since 1990. Melanoma in situ is not included in this register, nor melanoma in any other site than the skin. It has a coverage of approximately 98%, and in addition to variables such as age and TNM status, the Melanoma Register also includes information on the histopathology of the tumors, such as Breslow and Clark measures. Use of the six major antihistamines was established using the Swedish Prescribed Drug Register, a record of all dispensed prescribed pharmaceuticals in Sweden since July 1st 2005. To be included in the registry at least 2 weeks of prescription is required. Prescription free antihistamine use, non-dispensed doses, or use of other, less common, types of antihistamines is here considered non-use. Causes of death were obtained from the Swedish Cause of Death Register, a database where all deaths have been recorded since 1952. Data was pseudo-anonymized and the study was approved by the Regional Ethics Board.
(§3) For the cumulative post-diagnostic antihistamine use analysis, mortality rates for antihistamine users were compared to those of non-users through a Cox regression model allowing for time varying covariates, and survival time was measured in years since diagnosis. This allowed for a single individual to provide data as both a non-user and user of different antihistamines.
(§4) The impact of the cumulative DDDs was assessed after log transformation of the DDDs plus one3. Cox regression analyses were stratified for patient age at diagnosis, tumor size and node status (T and N status, respectively). A lag-time analysis was performed as described by Tamim et al. and Richardson et al. Statistical analyses were performed using R version XXX6.

[2] = Nation-wide register-based study, Cox regression: overall mortality/survival by antihistamine use; type: in vivo, human; conditions: hazard ratio versus non-users
Description: as §1, §2, §3, §4

[3] = use 6 months before and after diagnosis; adjusted for Breslow, sentinel lymph node status and education level
[4] = Risk of developing a second (new primary) melanoma after the first melanoma diagnosis; type: in vivo, human; conditions: for HR, risk of a new primary melanoma: use longer than 3 years after the first diagnosis, adjusted for age and sex, p<0.05
[5] = somnolence, tachycardia and headache reported; cited from earlier work

Row | SMILES | HR, melanoma specific survival adjusted for Breslow thickness [1] | HR, melanoma specific survival adjusted for Breslow thickness and lymph gland metastases [1] | survivability, comparative results adjusted for Breslow thickness [1] | HR, overall survival adjusted for Breslow thickness [2] | HR, overall survival adjusted for Breslow thickness and lymph gland metastases [2] | HR, peridiagnostic use, melanoma mortality [3] | effect on melanoma survival [1] | risk of a new primary melanoma, follow up counted from day 1 [4] | HR, risk of a new primary melanoma [4] | melanoma specific mortality HR, Men <65 ([1]; Men <65, 95% CI in brackets) | melanoma specific mortality HR, Men >65 ([1]; Men >65, 95% CI in brackets) | melanoma specific mortality HR, Women <65 ([1]; Women <65, 95% CI in brackets) | melanoma specific mortality HR, Women >65 ([1]; Women >65, 95% CI in brackets) | melanoma specific mortality HR, looking at DDD:s ([1]; by defined daily doses (DDDs), 95% CI in brackets) | symptoms in connection with overdoses [5]
1 | O=C(O)COCCN1CCN(C(c2ccccc2)c2ccc(Cl)cc2)CC1 (centres unmarked) [Cetirizine, cetirizine] | 1.006 | 1.014 | lack of improval of survivability | 1 | 0.991 | 0.962 |  |  |  |  |  |  |  |  | 
2 | CN1CCC[C@@H]1CCO[C@](C)(c1ccccc1)c1ccc(Cl)cc1 [Clemastine, clemastine] | 1.027 | 0.993 | lack of improval of survivability | 1.114 | 1.101 | 1.005 | consistently negative effect |  |  |  |  |  |  |  | 
3 | Clc1ccc2c(c1)CCc1cccnc1C2=C1CCNCC1 [Desloratadine, desloratadine] | 0.883 | 0.889 |  | 0.95 | 0.953 | 0.569 | consistently beneficial effect | No significant difference | 0.88 | 0.69 (0.37-1.29) | 0.77 (0.45-1.33) | 0.57 (0.25-1.28) | 0.80 (0.44-1.45) | 0.93 (0.87-1.00) | 
4 | CC(C)(C)c1ccc(C(=O)CCCN2CCC(OC(c3ccccc3)c3ccccc3)CC2)cc1 [Ebastine, ebastine] | 1.138 | 1.03 | lack of improval of survivability | 1.117 | 1.076 | 1.032 |  |  |  |  |  |  |  |  | 
5 | CC(C)(C(=O)O)c1ccc(C(O)CCCN2CCC(C(O)(c3ccccc3)c3ccccc3)CC2)cc1 (centres unmarked) [Fexofenadine, fexofenadine] | 0.979 | 0.935 | lack of improval of survivability | 1.011 | 1.013 | 0.901 |  |  |  |  |  |  |  |  | 
6 | CCOC(=O)N1CCC(=C2c3ccc(Cl)cc3CCc3cccnc32)CC1 [Loratadine, loratadine] | 0.858 | 0.851 |  | 0.962 | 0.964 | 0.534 | consistently beneficial effect | No significant difference | 0.88 |  |  |  |  |  | increase the incidence of anticholinergic symptoms
